GI50 and TGI data for nine compounds are collected here from PubChem BioAssay (NCI).

Where “and” joins values, the source holds several entries; their conditions need not be identical. Equal values may be shown once.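 Following 48 hours of exposure in 96-well plates, responses at five concentrations were used to interpolate endpoints linearly. At the GI50, growth is halved. TGI is the concentration that stops growth completely.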

Common to all, as to assay: inhibition of tumour cell growth, NCI panel, 48 h
The test system of experiment [1] is MOLT-4 leukemia.
Experiment [2] relates to RPMI-8226 leukemia.
Experiment [3] relates to UO-31 renal.
In experiment [4] the test system is BT-549 breast.
In experiment [5] the test system is HOP-92 NSCLC.
In experiment [6] the test system is NCI-H522 lung.
The subject of experiment [7] is MALME-3M melanoma.
The test system of experiment [8] is MCF7 breast.

For the compound `NC(CSC(c1ccccc1)(c1ccccc1)c1ccccc1)C(=O)NCC(=O)O` (stereo unspecified), the GI50 in experiment [1] was 16 µM; in experiment [2], 3.42 µM; in experiment [3], 31.3 µM; in experiment [4], 10.1 µM; in experiment [5], 5.01 µM; in experiment [6], 2.39 µM. Besides, the values for the GI50 in experiment [7] and in experiment [8] were 5.3 µM and 3.87 µM, respectively. The TGI in experiment [1] was 86.3 µM; in experiment [2], 24.5 µM; in experiment [3], above 100 µM; in experiment [4], above 100 µM; in experiment [5], above 100 µM; in experiment [6], 7.13 µM. Further, the TGI in experiment [7] and in experiment [8] was above 100 µM in each case.
Consider `CCN1C(=O)c2ccc3c4c(ccc(c24)C1=O)C(=O)N(CCCNCc1ccccc1OC)C3=O`, for which the GI50 in experiment [1] was 0.891 µM; in experiment [2], 1.64 µM; in experiment [3], 1.39 µM; in experiment [4] it was 1.48 µM; in experiment [5], 2.6 µM; in experiment [6], 1.19 µM. Besides, the GI50 in experiment [7] is 0.186 µM; in experiment [8] it was 0.205 µM. In addition, the TGI in experiment [1] stood at 4.37 µM; in experiment [2], 5.53 µM; in experiment [3], 3.58 µM; in experiment [4] it was 2.94 µM; in experiment [5], 5.5 µM; in experiment [6], 2.68 µM. Besides, the TGI in experiment [7] was determined as 0.391 µM; in experiment [8], 0.584 µM.
As to `COc1ccc2c(c1)NC1=C(C(=O)OC1)C2c1cc(OC)c(OC)c(OC)c1` (stereo unspecified), the GI50 is below 0.01 µM in experiment [1]; below 0.01 µM in experiment [2]; below 0.01 µM in experiment [4]; below 0.0112 µM in experiment [5]; below 0.01 µM in experiment [6]; 26 µM in experiment [7]. Also, the GI50 in experiment [8] was below 0.01 µM. In addition, the TGI in experiment [1] was above 100 µM; in experiment [2] it was above 100 µM; in experiment [3], above 100 µM; in experiment [4] it was below 0.01 µM; in experiment [5] it was above 100 µM; in experiment [6], below 0.01 µM. The TGI in experiment [7] and in experiment [8] was above 100 µM in each case.
For the compound `C=CC(=O)N1CCC(Oc2cc3c(Nc4ccc(Cl)c(Cl)c4F)ncnc3cc2OC)CC1`, the GI50 in experiment [1] is 3.38 µM and 2.13 µM; in experiment [2], 6.49 µM and 3.93 µM; in experiment [3], 0.0493 µM and 0.0566 µM; in experiment [4], 1.9 µM and 2.23 µM; in experiment [5], 0.944 µM and 0.338 µM; in experiment [6] it was < 0.01 µM and 0.00141 µM. Further, the GI50 in experiment [7] was 7.36 µM and > 5.35 µM; in experiment [8], 2.05 µM and 1.42 µM. Besides, the TGI in experiment [1] was 17.9 µM and > 8.44 µM; in experiment [2] it was 42.6 µM and > 10 µM; in experiment [3], 4.75 µM and 3.72 µM; in experiment [4], 13.4 µM and > 10 µM; in experiment [5], 5.59 µM and 3.07 µM; in experiment [6], 4.19 µM and 0.782 µM. Moreover, the TGI is 23.9 µM and > 10 µM in experiment [7]; 21.7 µM and > 10 µM in experiment [8].
In the case of `CCCCCCCCCCCCCCCCCCOC[C@H](COP(=O)(O)O[C@H]1[C@H](O)[C@@H](O)[C@H](O)C[C@H]1O)OC`, the GI50 is 27 µM and 12.4 µM in experiment [1]; above 100 µM in experiment [3]; > 100 µM and 15.9 µM in experiment [4]; 29.4 µM and 12.3 µM in experiment [5]; 36.5 µM and 11.4 µM in experiment [6]; > 100 µM and 18.3 µM in experiment [7]. The GI50 in experiment [8] is > 100 µM and 17.3 µM. Besides, the TGI is > 100 µM and 33 µM in experiment [1]; 79.7 µM and 30.7 µM in experiment [2]; > 100 µM and 22.1 µM in experiment [3]; > 100 µM and 30.4 µM in experiment [4]; > 100 µM and 25.3 µM in experiment [5]; > 100 µM and 25.4 µM in experiment [6]. Also, the TGI in experiment [7] is > 100 µM and 33.9 µM; in experiment [8], > 100 µM and 32.2 µM.
For the compound `C=C(C)[C@@H]1CC[C@]2(COCCCN)CC[C@]3(C)[C@H](CC[C@@H]4[C@@](C)(CCCNCCCN)[C@H](C(=C)C)CC[C@]43C)[C@@H]12`, the GI50 is 1.96 µM in experiment [1]; 2.2 µM in experiment [2]; 1.43 µM in experiment [3]; 10.6 µM in experiment [4]; 1.36 µM in experiment [5]; 1.88 µM in experiment [6]. Moreover, the values for the GI50 in experiment [7] and in experiment [8] were 1.66 µM and 1.59 µM, respectively. Moreover, the TGI in experiment [1] amounted to 4.47 µM; in experiment [2], 5.08 µM; in experiment [3], 2.77 µM; in experiment [4], 29.6 µM; in experiment [5], 2.84 µM; in experiment [6], 3.78 µM. The TGI in experiment [7] was found to be 3.12 µM; in experiment [8], 3.22 µM.
As for `Cc1ccc(C2=C(c3ccc(C)cc3)C3(c4ccc(C)cc4)C4C(=O)OC(=O)C4C2(c2ccc(C)cc2)S3=O)cc1` (stereo unspecified), the GI50 in experiment [2] is 21.2 µM; in experiment [3], 34.3 µM; in experiment [4], 23.9 µM; in experiment [5] it was 25.3 µM; in experiment [6] it was 34 µM; in experiment [7], 27.9 µM. Also, the GI50 in experiment [8] is 29.2 µM. In addition, the TGI is 89.5 µM in experiment [2]; above 100 µM in experiment [3]; above 100 µM in experiment [4]; 89.8 µM in experiment [5]; above 100 µM in experiment [6]; 84 µM in experiment [7]. For the same compound, the TGI in experiment [8] was above 100 µM.
In the case of `COc1cccc2c1C(=N)c1c(O)c3c(c(O)c1C2=O)C[C@@](O)(C(C)=O)C[C@@H]3O[C@H]1C[C@H](N)[C@H](O)[C@H](C)O1`, the GI50 was 0.0428 µM in experiment [1]; 0.255 µM in experiment [2]; 2.24 µM in experiment [3]; 0.813 µM in experiment [4]; 0.256 µM in experiment [6]; 0.391 µM in experiment [7]. Also, the GI50 in experiment [8] is 0.0379 µM. Besides, the TGI in experiment [1] is 2.89 µM; in experiment [2], 4.03 µM; in experiment [3], 19.9 µM; in experiment [4], 4.58 µM; in experiment [5], 7.35 µM; in experiment [6] it was 1.5 µM. In addition, the TGI in experiment [7] was 3.24 µM; in experiment [8], 5.2 µM.
Turning to `COc1ccc(C(C#N)NC23CC4CC(CC(C4)C2)C3)cc1` (stereo unspecified), the TGI in experiment [1], in experiment [2], in experiment [3], in experiment [4], in experiment [5] and in experiment [6] was above 100 µM in each case. The TGI in experiment [7] and in experiment [8] was above 100 µM in each case.
